Experiment [1] has as its target T1, Elongation factor 1-alpha 1 (EEF1A1) (Homo sapiens, UniProt P68104).
T1 sequence (P68104 1-462): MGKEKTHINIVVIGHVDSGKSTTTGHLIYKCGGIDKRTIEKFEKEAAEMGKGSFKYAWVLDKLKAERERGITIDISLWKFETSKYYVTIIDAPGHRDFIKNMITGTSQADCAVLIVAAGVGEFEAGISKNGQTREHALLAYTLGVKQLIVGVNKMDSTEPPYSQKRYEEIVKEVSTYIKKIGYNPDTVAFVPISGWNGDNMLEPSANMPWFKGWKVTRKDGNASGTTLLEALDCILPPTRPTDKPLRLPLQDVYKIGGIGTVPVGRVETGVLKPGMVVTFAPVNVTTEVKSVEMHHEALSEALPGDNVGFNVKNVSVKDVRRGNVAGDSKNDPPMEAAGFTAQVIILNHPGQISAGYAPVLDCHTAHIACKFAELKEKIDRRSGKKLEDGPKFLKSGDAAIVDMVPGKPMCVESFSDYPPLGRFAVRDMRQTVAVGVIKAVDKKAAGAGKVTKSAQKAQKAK
Briefly: TMT LC-MSMS of 11-labelled proteins. In kind it is cell-based.

The target in experiment [2] is T2, Isoform 3 of Very long-chain specific acyl-CoA dehydrogenase, mitochondrial (ACADVL) (Homo sapiens, UniProt P49748).
T2 sequence (P49748 64-678 isoform P49748-3): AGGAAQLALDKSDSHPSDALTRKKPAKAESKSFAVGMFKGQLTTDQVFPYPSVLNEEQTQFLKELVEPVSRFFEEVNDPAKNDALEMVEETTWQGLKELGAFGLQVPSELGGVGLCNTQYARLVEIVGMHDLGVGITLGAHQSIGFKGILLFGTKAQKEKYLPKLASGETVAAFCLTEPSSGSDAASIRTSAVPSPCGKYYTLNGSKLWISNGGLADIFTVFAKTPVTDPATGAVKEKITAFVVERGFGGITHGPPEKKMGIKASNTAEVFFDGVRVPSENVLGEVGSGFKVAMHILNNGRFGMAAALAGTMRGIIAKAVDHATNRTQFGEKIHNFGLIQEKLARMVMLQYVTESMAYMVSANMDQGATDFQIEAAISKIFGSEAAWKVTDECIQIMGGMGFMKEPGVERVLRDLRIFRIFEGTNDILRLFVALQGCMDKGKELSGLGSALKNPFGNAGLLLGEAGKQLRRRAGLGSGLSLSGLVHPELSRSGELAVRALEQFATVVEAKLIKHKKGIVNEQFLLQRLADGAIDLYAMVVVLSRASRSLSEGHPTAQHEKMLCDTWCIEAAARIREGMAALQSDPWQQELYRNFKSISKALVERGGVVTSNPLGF
Briefly: TMT LC-MSMS of 11-labelled proteins. In kind it is cell-based.

Where [3] appears, read: sheet Exp1, SKBR3 cells, 11 0.5 µM 3 h vs DMSO.
Where [4] appears, read: sheet Exp1, SKBR3 cells, 11 0.5 µM 3 h vs with PU-H71 10 µM.
The mark [5] stands for this setting: sheet Merged, SKBR3 cells, 11 0.5 µM 3 h vs DMSO.
Where [6] appears, read: sheet Merged, SKBR3 cells, 11 0.5 µM 3 h vs with PU-H71 10 µM.

As for `CC(=O)Oc1ccc2c(c1)Oc1cc(OC(C)=O)ccc1C21OC(=O)c2cc(C(=O)NCCOCCOCCNC(=O)CCCC(=O)N(CC#N)S(=O)(=O)c3ccc(C(=O)NCCCn4c(Sc5cc6c(cc5I)OCO6)nc5c(N)ncnc54)cc3)ccc21` [compound 11], the “Abundance Ratio: (11) / (11 with PU-H71)” value is recorded as 0.806 in experiment [1] (Exp3, EEF1A1); 0.803 in experiment [1] (setting [4]); 0.83 in experiment [1] (sheet Exp2, EEF1A1); 0.811 in experiment [1] (setting [6]); 0.845 in experiment [2] (Exp3, ACADVL); 0.816 in experiment [2] (setting [4]). For the same molecule, the “Abundance Ratio: (11) / (11 with PU-H71)” value was 0.826 in experiment [2] (sheet Exp2, ACADVL) and 0.826 in experiment [2] (setting [6]). Further, the “Abundance Ratio: (11) / (DMSO)” value in experiment [1] (Exp3, EEF1A1) is listed as 4.916; in experiment [1] (setting [3]) it was 4.039; in experiment [1] (sheet Exp2, EEF1A1), 3.879; in experiment [1] (setting [5]), 3.879; in experiment [2] (Exp3, ACADVL) it was 5.056; in experiment [2] (setting [3]), 5.466. Moreover, the “Abundance Ratio: (11) / (DMSO)” value in experiment [2] (sheet Exp2, ACADVL) came to 4.735; in experiment [2] (setting [5]) it was 4.735. Besides, the “Abundances (Grouped): 11” value is 720.2 in experiment [1] (Exp3, EEF1A1); 725.4 in experiment [1] (sheet Exp2, EEF1A1); 1747 in experiment [2] (Exp3, ACADVL); 1334.4 in experiment [2] (sheet Exp2, ACADVL). The “Abundances (Grouped): 11 with PU-H71” value is 894 in experiment [1] (Exp3, EEF1A1); 874.4 in experiment [1] (sheet Exp2, EEF1A1); 2067.1 in experiment [2] (Exp3, ACADVL); 1615.2 in experiment [2] (sheet Exp2, ACADVL).

The record behind these values is article PMC5951806, “Rapid labelling and covalent inhibition of intracellular native proteins using ligand-directed N-acyl-N-alkyl sulfonamide” (Nature Communications, 2018).
